The source of these data is patent publication US8921376B2, “Pyrrolopyridines useful as inhibitors of protein kinase” (Vertex Pharmaceuticals Incorporated, priority 2005, dated 2014).

What all share (format): biochemical
One test concerns the target T1, JAK3 (Homo sapiens, UniProt P52333).
T1 sequence (P52333 1-1124): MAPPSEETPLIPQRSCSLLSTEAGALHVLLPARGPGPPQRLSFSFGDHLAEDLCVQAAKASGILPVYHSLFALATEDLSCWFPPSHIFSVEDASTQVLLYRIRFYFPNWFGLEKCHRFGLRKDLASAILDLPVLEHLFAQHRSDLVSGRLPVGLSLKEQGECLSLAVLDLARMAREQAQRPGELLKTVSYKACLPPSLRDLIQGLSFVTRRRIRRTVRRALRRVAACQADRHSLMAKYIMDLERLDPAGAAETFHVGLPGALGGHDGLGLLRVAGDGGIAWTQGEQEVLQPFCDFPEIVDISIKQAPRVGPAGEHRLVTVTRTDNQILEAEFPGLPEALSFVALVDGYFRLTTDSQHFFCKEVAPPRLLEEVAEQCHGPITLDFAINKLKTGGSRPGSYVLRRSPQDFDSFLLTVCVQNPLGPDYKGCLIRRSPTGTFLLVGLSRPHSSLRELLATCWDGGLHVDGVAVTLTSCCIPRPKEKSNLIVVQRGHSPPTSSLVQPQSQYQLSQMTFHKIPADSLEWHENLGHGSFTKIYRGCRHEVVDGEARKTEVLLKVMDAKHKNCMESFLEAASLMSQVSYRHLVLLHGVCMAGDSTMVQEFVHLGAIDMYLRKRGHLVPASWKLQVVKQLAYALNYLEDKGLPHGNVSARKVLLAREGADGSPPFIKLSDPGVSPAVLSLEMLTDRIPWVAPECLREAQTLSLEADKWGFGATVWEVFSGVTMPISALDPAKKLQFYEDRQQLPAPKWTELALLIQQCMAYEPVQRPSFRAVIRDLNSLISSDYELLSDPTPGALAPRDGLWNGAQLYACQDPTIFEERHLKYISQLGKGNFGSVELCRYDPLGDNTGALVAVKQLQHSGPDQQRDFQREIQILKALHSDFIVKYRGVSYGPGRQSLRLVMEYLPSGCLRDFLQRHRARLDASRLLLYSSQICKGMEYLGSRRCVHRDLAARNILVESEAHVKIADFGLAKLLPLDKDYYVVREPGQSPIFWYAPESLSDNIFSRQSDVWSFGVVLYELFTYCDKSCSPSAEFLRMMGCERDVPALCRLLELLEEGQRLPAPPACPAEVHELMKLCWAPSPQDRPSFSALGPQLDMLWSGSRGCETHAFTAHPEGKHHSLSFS
The experiment in a line: JAK3 inhibition assay (33P incorporation into poly(Glu)4Tyr). The procedure:
(§1) Compounds were screened for their ability to inhibit JAK using the assay shown below. Reactions were carried out in a kinase buffer containing 100 mM HEPES (pH 7.4), 1 mM DTT, 10 mM MgCl2, 25 mM NaCl, and 0.01% BSA.
(§2) Substrate concentrations in the assay were 5 μM ATP (200 μCi/μmole ATP) and 1 μM poly(Glu)4Tyr. Reactions were carried out at 25° C. and 1 nM JAK3.
(§3) To each well of a 96 well polycarbonate plate was added 1.5 μl of a candidate JAK3 inhibitor along with 50/1 of kinase buffer containing 2 μM poly(Glu)4Tyr and 10 μM ATP. This was then mixed and 50 μl of kinase buffer containing 2 nM JAK3 enzyme was added to start the reaction. After 20 minutes at room temperature (25 C), the reaction was stopped with 50 μl of 20% trichloroacetic acid (TCA) that also contained 0.4 mM ATP. The entire contents of each well were then transferred to a 96 well glass fiber filter plate using a TomTek Cell Harvester. After washing, 60 μl of scintillation fluid was added and ^33P incorporation detected on a Perkin Elmer TopCount.

The target of the next test is JAK2 (Homo sapiens, UniProt O60674). In words: JAK2 inhibition assay (as Example 3 with JAK-2 enzyme). As for the experimental part:
as §1, §2, §3
The assays were as described above in Example 3 except that JAK-2 enzyme was used, the final poly(Glu)4Tyr concentration was 15 μM, and final ATP concentration was 12 μM.

The target of the next test is ROCK I (Homo sapiens, UniProt Q13464). The experiment in a line: ROCK-I inhibition assay (radioactive enzyme assay, MBP substrate). As for the experimental part: Compounds were screened for their ability to inhibit ROCK using a standard radioactive enzyme assay. Assays were carried out in a solution containing 100 mM HEPES (pH 7.5), 10 mM MgCl2, 25 mM NaCl, 2 mM DTT, and 1.5% DMSO. Final substrate concentrations in the assay were 13 μM [γ-^33P] ATP (25 mCi ^33P ATP/mmol ATP, Perkin Elmer, Cambridge, Mass./Sigma Chemicals, St Louis, Mo.) and 27 μM Myelin Basic Protein (MBP). Final enzyme concentration in the assay was 5 nM ROCK. Assays were carried out at room temperature. 1.5 μl of DMSO stock containing serial dilutions of the compound of the present invention (concentrations ranging from 10 μM to 2.6 nM) was placed in a 96 well plate. 50 μl of Solution 1 (100 mM HEPES (pH 7.5), 10 mM MgCl2, […]) was added to the plate. The reaction was initiated by addition of 50 μl of Solution 2 (100 mM HEPES (pH 7.5), 10 mM MgCl2, 4 mM DTT, […] and 10 nM ROCK). After 2 hours the reaction was quenched with 50 μL of 30% trichloroacetic acid (TCA, Fisher) containing 9 mM ATP. Transfer of 140 μL of the quenched reaction to a glass fiber filter plate (Corning, Cat. No. 3511) was followed by washing 3 times with 5% TCA. 50 μl of Optima Gold scintillation fluid (Perkin Elmer) was added and the plates were counted on a Top Count (Perkin Elmer). After removing mean background values for all of the data points the data was fit using Prism software to obtain a Ki(app).

The mark [1] stands for this setting: Table 6, enzyme inhibition data (Ki).
The mark [2] stands for this setting: enzyme inhibition, Ki(app), Table 5.

JAK2, sequence (O60674 whole entry): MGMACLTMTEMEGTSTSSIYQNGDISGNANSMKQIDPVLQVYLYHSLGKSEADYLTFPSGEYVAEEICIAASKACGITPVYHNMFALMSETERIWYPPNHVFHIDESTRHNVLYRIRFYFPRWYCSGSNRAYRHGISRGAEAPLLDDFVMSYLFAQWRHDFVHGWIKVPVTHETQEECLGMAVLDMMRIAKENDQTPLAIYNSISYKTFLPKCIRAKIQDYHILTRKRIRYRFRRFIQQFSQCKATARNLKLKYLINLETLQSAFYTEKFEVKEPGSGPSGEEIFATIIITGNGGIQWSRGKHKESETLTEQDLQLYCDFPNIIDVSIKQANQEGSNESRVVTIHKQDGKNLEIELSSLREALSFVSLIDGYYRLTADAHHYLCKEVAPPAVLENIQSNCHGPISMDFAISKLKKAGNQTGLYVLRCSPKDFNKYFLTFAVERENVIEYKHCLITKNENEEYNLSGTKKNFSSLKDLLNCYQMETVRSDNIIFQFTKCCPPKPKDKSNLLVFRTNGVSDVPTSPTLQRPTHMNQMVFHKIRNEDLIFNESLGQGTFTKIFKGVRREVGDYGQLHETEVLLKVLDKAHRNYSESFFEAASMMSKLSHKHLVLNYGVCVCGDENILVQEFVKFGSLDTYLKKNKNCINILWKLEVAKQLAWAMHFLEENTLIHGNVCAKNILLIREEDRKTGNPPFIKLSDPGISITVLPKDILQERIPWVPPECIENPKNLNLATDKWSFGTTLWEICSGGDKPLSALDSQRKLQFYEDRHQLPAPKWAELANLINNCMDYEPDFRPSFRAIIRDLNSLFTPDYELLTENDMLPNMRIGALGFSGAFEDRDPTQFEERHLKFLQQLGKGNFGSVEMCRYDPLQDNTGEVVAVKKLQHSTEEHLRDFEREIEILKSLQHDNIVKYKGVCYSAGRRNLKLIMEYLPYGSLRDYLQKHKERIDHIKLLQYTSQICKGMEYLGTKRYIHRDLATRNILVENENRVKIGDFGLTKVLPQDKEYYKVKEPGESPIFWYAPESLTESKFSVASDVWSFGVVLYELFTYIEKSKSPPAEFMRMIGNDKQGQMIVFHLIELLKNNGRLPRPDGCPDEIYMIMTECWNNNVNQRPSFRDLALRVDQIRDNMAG
ROCK I, sequence (Q13464 whole entry): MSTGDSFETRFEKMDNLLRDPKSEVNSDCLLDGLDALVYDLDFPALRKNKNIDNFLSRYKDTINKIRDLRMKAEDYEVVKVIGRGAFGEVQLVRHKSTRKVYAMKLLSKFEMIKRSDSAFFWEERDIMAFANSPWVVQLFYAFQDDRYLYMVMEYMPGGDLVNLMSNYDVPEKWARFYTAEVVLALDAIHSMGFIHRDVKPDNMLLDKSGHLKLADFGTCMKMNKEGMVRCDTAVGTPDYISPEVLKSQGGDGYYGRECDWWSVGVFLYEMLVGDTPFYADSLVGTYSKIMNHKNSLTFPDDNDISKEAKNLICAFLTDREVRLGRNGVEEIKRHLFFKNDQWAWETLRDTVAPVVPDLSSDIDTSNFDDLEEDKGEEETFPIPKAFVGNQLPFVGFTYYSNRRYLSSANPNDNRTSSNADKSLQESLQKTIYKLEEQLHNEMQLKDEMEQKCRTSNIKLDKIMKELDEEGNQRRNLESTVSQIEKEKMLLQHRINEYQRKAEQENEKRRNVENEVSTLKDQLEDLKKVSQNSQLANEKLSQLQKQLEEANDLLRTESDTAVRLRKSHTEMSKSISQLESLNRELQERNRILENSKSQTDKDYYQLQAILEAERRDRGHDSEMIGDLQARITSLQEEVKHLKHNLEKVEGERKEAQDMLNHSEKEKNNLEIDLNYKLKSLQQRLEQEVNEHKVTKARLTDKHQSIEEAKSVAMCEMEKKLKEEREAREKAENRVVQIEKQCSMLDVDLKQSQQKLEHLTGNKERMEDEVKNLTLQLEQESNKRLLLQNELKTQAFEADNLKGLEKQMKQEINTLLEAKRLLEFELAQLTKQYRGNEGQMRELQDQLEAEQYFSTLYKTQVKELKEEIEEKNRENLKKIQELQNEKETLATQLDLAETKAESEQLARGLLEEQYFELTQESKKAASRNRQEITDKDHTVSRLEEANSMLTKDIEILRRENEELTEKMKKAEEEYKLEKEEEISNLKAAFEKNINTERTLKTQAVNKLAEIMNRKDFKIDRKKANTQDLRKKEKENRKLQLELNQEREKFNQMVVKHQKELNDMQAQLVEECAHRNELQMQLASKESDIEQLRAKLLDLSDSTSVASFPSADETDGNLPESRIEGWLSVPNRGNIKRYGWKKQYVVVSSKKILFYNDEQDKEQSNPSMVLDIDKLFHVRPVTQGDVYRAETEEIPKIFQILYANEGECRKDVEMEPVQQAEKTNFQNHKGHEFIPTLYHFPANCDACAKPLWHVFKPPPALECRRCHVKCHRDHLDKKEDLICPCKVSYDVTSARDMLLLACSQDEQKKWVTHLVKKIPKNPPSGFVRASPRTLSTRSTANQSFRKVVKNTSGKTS

As for `N#CCCN(Cc1cccnc1)C(=O)c1ccc(-c2ccnc3[nH]ccc23)s1` [compound 316], the Ki on JAK3 (setting [1]), at JAK2 (setting [1]) and on ROCK I (setting [1]) was below 500 nM in each case.

On to `CCCCOc1ccccc1-c1ccnc2[nH]ccc12` [compound 241], for which the Ki at JAK3 (setting [1]) is above 5000 nM; on JAK2 (setting [1]), above 5000 nM; at ROCK I (setting [1]), above 4000 nM.

For `O=C(O)c1cc(-c2c(Cl)cnc3[nH]ccc23)c[nH]1` [compound 81, 4-(5-Chloro-1H-pyrrolo[2,3b]pyridin-4-yl)-1H-pyrrole-2-carboxylic acid], the Ki on JAK3 (enzyme inhibition, Table 5) is below 500 nM; at JAK2 (enzyme inhibition, Table 5), below 500 nM; at ROCK I (setting [2]), 500 to 5000 nM.

Take `O=C(NC1CCC1)c1cc(-c2ccnc3[nH]ccc23)c[nH]1` [compound 287]: the Ki on JAK3 (setting [1]), at JAK2 (setting [1]) and at ROCK I (setting [1]) was below 500 nM each time.

On to `Clc1cnc2[nH]ccc2c1NC1CCCC1` [compound 127, 5-chloro-N-cyclopentyl-1H-pyrrolo[2,3-b]pyridin-4-amine], for which the Ki was below 500 nM at JAK3 (enzyme inhibition, Table 5); below 500 nM at JAK2 (enzyme inhibition, Table 5); below 500 nM at ROCK I (setting [2]).

For the compound `O=S(=O)(C1CC1)N1CC[C@@H](Nc2c(Cl)cnc3[nH]ccc23)C1` [compound 183], the Ki on JAK3 (setting [1]) is below 500 nM; at JAK2 (setting [1]) it was below 500 nM; on ROCK I (setting [1]), above 4000 nM.

Take `CCN(Cc1ccccn1)C(=O)c1cc(-c2c(Cl)cnc3[nH]ccc23)c[nH]1` [compound 333]: the Ki on JAK3 (setting [1]) is below 500 nM; on JAK2 (setting [1]), below 500 nM; at ROCK I (setting [1]) it was above 4000 nM.

With `CCN(Cc1ccccc1)C(=O)c1ccc(-c2ccnc3[nH]ccc23)s1` [compound 304], the Ki at JAK3 (setting [1]), at JAK2 (setting [1]) and on ROCK I (setting [1]) was below 500 nM throughout.

In the case of `CCNC(=O)c1cc(-c2c(Cl)cnc3[nH]ccc23)c[nH]1` [compound 278], the figures for the Ki on JAK3 (setting [1]), at JAK2 (setting [1]) and at ROCK I (setting [1]) were below 500 nM, below 500 nM and above 4000 nM, respectively.

Consider `CC(=O)Nc1ccccc1-c1c(Cl)cnc2[nH]ccc12` [compound 128], for which the Ki on JAK3 (enzyme inhibition, Table 5) is above 5000 nM; at JAK2 (enzyme inhibition, Table 5), above 5000 nM; on ROCK I (setting [2]) it was 500 to 5000 nM.

As for `N#CC1CCCN1C(=O)c1cc(-c2ccnc3[nH]ccc23)c[nH]1` (stereo not drawn) [compound 373], the Ki on JAK3 (setting [1]), at JAK2 (setting [1]) and at ROCK I (setting [1]) was below 500 nM throughout.

For `c1cc(CN2CCOCC2)cc(-c2ccnc3[nH]ccc23)c1` [compound 88, 4-(3-Morpholin-4-ylmethyl-phenyl)-1H-pyrrolo[2,3-b]pyridine], the Ki at JAK3 (enzyme inhibition, Table 5) is 500 to 5000 nM; at JAK2 (enzyme inhibition, Table 5), 500 to 5000 nM; on ROCK I (setting [2]), 500 to 5000 nM.

For `CC1CC(Nc2c(Cl)cnc3[nH]ccc23)CC(C)(C)C1` (stereo not drawn) [compound 162], the values for the Ki on JAK3 (setting [1]), on JAK2 (setting [1]) and on ROCK I (setting [1]) were below 500 nM, below 500 nM and 500 to 5000 nM, respectively.

As to `c1ccc(COc2ccccc2-c2ccnc3[nH]ccc23)cc1` [compound 225], the results for the Ki at JAK3 (setting [1]), at JAK2 (setting [1]) and at ROCK I (setting [1]) were above 5000 nM, above 5000 nM and above 4000 nM, respectively.

As for `Cn1cc(-c2ccnc3[nH]ccc23)cn1` [compound 111, 4-(1-Methyl-1H-pyrazol-4-yl)-1H-pyrrolo[2,3-b]pyridine], the Ki on JAK3 (enzyme inhibition, Table 5) was below 500 nM; at JAK2 (enzyme inhibition, Table 5), below 500 nM; at ROCK I (setting [2]) it was below 500 nM.

`CC1CCCN1C(=O)c1csc(-c2ccnc3[nH]ccc23)n1` (stereo not drawn) [compound 419]: the Ki on JAK3 (setting [1]), at JAK2 (setting [1]) and on ROCK I (setting [1]) was below 500 nM throughout.

For `O=C(CNc1nc(-c2ccnc3[nH]ccc23)nc2ccccc12)NCC(F)(F)F` [compound 196], the Ki at JAK3 (setting [1]) was 500 to 5000 nM; on JAK2 (setting [1]), 500 to 5000 nM; at ROCK I (setting [1]), above 4000 nM.

`c1ccc2c(c1)Oc1c(cccc1-c1ccnc3[nH]ccc13)S2` [compound 246]: the Ki is above 5000 nM at JAK3 (setting [1]), above 5000 nM on JAK2 (setting [1]) and above 4000 nM at ROCK I (setting [1]).

For the compound `CCOC(=O)C1CCN(C(=O)c2cc(-c3ccnc4[nH]ccc34)c[nH]2)CC1` [compound 364], the Ki on JAK3 (setting [1]), on JAK2 (setting [1]) and on ROCK I (setting [1]) was 500 to 5000 nM in each case.

For the compound `c1cc(-c2ccnc3[nH]ccc23)[nH]n1` [compound 106, 4-(2H-Pyrazol-3-yl)-1H-pyrrolo[2,3-b]pyridine], the Ki on JAK3 (enzyme inhibition, Table 5) was below 500 nM; on JAK2 (enzyme inhibition, Table 5), 500 to 5000 nM; on ROCK I (setting [2]) it was below 500 nM.

Consider `CC(C)N(C)c1cccc(-c2ccnc3[nH]ccc23)n1` [compound 61, N-Isopropyl-N-methyl-6-(1H-pyrrolo[2,3-b]pyridin-4-yl)pyridin-2-amine], for which the Ki is 500 to 5000 nM at JAK3 (enzyme inhibition, Table 5); below 500 nM at JAK2 (enzyme inhibition, Table 5); 500 to 5000 nM at ROCK I (setting [2]).

As for `O=C(NCCC(F)(F)F)c1cccc(-c2ccnc3[nH]ccc23)c1` [compound 252], the results for the Ki at JAK3 (setting [1]), on JAK2 (setting [1]) and on ROCK I (setting [1]) were below 500 nM, 500 to 5000 nM and 500 to 5000 nM, respectively.

With `COc1ccc(F)cc1-c1ccnc2[nH]ccc12` [compound 205], the Ki on JAK3 (setting [1]), at JAK2 (setting [1]) and at ROCK I (setting [1]) was 500 to 5000 nM throughout.

Regarding `Clc1ccccc1Nc1c(Cl)cnc2[nH]ccc12` [compound 158], the values for the Ki on JAK3 (setting [1]), at JAK2 (setting [1]) and on ROCK I (setting [1]) were below 500 nM, below 500 nM and 500 to 5000 nM, respectively.

With `CC(=O)N1CC=C(c2ccnc3[nH]ccc23)CC1` [compound 64], the Ki at JAK3 (enzyme inhibition, Table 5) lay in the range of 500 to 5000 nM; at JAK2 (enzyme inhibition, Table 5), 500 to 5000 nM; on ROCK I (setting [2]), 500 to 5000 nM.

For the compound `Cc1noc(C)c1-c1c(Cl)cnc2[nH]ccc12` [compound 146], the Ki at JAK3 (setting [1]) is above 5000 nM; on JAK2 (setting [1]) it was above 5000 nM; at ROCK I (setting [1]) it was above 4000 nM.

For the compound `CC(C)(O)c1cccc(-c2ccnc3[nH]ccc23)n1` [compound 123, 2-(6-(1H-pyrrolo[2,3-b]pyridin-4-yl)pyridin-2-yl)propan-2-ol], the Ki on JAK3 (enzyme inhibition, Table 5) was below 500 nM; on JAK2 (enzyme inhibition, Table 5), below 500 nM; at ROCK I (setting [2]) it was below 500 nM.

On to `O=C(c1cc(-c2c(Cl)cnc3[nH]ccc23)c[nH]1)N1CCC(CO)CC1` [compound 347], for which the figures for the Ki on JAK3 (setting [1]), on JAK2 (setting [1]) and at ROCK I (setting [1]) were below 500 nM, below 500 nM and 500 to 5000 nM, respectively.

Regarding `O=C(NC1CC1)c1cc(-c2ccnc3[nH]ccc23)c[nH]1` [compound 285], the Ki at JAK3 (setting [1]), on JAK2 (setting [1]) and on ROCK I (setting [1]) was below 500 nM in each case.
